The text below walks through data of patent JP2010202587A, “プロトンポンプ阻害剤を含有する組成物” (Pola Chemical Industries Inc, priority 2009, dated 2010).

For experiment [1], the target named is T1, tyrosinase [チロシナ−ゼ] (Homo sapiens, UniProt P14679).
T1 sequence (P14679 19-529): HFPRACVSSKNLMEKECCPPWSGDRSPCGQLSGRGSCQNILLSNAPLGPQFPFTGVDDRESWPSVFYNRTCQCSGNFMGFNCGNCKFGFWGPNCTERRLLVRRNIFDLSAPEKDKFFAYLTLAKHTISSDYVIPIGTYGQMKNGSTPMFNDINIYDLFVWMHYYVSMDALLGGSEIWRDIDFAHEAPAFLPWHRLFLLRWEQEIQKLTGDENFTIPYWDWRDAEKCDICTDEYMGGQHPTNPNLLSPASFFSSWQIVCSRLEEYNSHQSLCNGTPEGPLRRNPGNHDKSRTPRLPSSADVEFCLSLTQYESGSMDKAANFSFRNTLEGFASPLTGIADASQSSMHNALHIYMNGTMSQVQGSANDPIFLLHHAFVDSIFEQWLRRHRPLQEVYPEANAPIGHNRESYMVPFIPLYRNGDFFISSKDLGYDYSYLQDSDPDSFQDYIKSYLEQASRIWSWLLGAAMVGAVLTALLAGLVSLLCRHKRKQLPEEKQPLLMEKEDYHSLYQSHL
Conditions: known from patent literature; cited from earlier work.

Experiment [2] relates to human normal melanocytes [ヒト正常メラノサイト]. Put plainly: Melanin production inhibition (2-[2-14C]thiouracil uptake, 4 days). Type of experiment: cell-based. Particulars: in words, from Table 1.
The target of experiment [3] is T2, tyrosinase [チロシナ−ゼ] (Homo sapiens, UniProt P14679).
T2 construct: 溶解液を15000rpm、5分間遠心し、上清を回収し細胞抽出液とした; host or cells: normal human melanocytes (detergent lysate supernatant)
Put plainly: Direct tyrosinase inhibition (human melanocyte extract, L-DOPA substrate). Conditions: human normal melanocyte extract, 37℃, 15 min, in words, from Table 2. Type of experiment: biochemical.

The test system of experiment [4] is human normal melanocytes [ヒト正常メラノサイト]. Put plainly: Detection of acidification in melanosomes (proton pump inhibition; DAMP fluorescence, confocal laser microscope). Type of experiment: cell-based. Particulars: Figure 2; for Colour of overlaid photograph (DAMP + tyrosinase): yellow = melanosome acidified.

On to `CCCCc1ccc(O)cc1O` [4−n−ブチルレゾルシノ−ル], for which the Tyrosinase inhibitory activity result in experiment [1] was “強力なチロシナ−ゼ阻害活性”.

Regarding `Oc1ccc(O)cc1` [ハイドロキノン, reference compound], the Melanin production inhibition result in experiment [2] was “優れたメラニン産生抑制作用”.

As for `NC(=S)Nc1ccccc1` [フェニルチオウレア], in experiment [3], the Direct tyrosinase inhibition entry is listed as “顕著なチロシナ−ゼ直接阻害作用を示した”.

For the molecule `CC(C)=CCc1cc([C@@H]2CC(=O)c3c(O)c(CC=C(C)C)c(O)c(CC=C(C)C)c3O2)cc(O)c1O` [化合物3, amorisin], the “Melanin production inhibition compared with the positive control (hydroquinone)” value in experiment [2] is “陽性対照と同等乃至はそれ以上のメラニン産生抑制作用”. For the same molecule, the “Red staining showing the presence of tyrosinase” value in experiment [4] (versus untreated control) is “同程度”.

On to Euchrenone a3 [化合物2], for which the “Melanin production inhibition compared with the positive control (hydroquinone)” value in experiment [2] was “優れたメラニン産生抑制作用”. In experiment [4], the “Colour of overlaid photograph (DAMP + tyrosinase)” value is recorded as “黄色より幾分オレンジ色がかっている”.

Euchrenone a6 [化合物1]: in experiment [2], the “Melanin production inhibition compared with the positive control (hydroquinone)” value is reported as “優れたメラニン産生抑制作用”. Further, in experiment [4] (versus untreated control), the “Green staining showing the degree of acidification (DAMP)” value is given as “濃くなっており” and the “Red staining showing the presence of tyrosinase” value is reported as “コントロ−ルと同程度”. Besides, the “Colour of overlaid photograph (DAMP + tyrosinase)” value in experiment [4] was “黄色を呈している”.
